Test results from paper PMC3602366 (Insect biochemistry and molecular biology, 2013).
Where no end group is shown, it is not given here.

Tests used:
[1] = test system: SG acini; details: paracrine factor; ref Kaufman et al., 1999; Šimo et al., 2011a; cited from earlier work
[2] = test system: synganglion; details: ref Kaufman, 1978; McSwain et al., 1992; cited from earlier work
[3] = biological target: MIP-R1 (I. scapularis myoinhibitory peptide receptor 1) (Ixodes scapularis, UniProt L7ZCA0); assay: cell-based
[4] = biological target: SIFa-R (I. scapularis SIFamide receptor) (Ixodes scapularis, UniProt L7Z4E7); assay: Receptor functional assay; assay type: cell-based

Row | Molecule | EC50 [3] | further results
1 | NCCc1ccc(O)c(O)c1 [Dopamine] |  | activation of SG acini [1]: acts as a paracrine factor for the activation of SG acini for fluid secretion
2 | CC[C@@H]1C(=O)OC[C@@H]1Cc1cncn1C [pilocarpine] |  | activation of the synganglion [2]: activates the synganglion
3 | ASDWNRLSGMW-NH2 [MIP2] | 32 nM | 
4 | AYRKPPFNGSIF-NH2 [SIFamide] |  | EC50 [4]: 5.8 nM
5 | ENHWNDLSGYW-NH2 [MIP3] | 15 nM | 
6 | GGDWNALSGMW-NH2 [MIP1] | 40 nM | 
